# How the values were obtained:
# Test in all cases: Bacterial growth minimal inhibitory concentration (microdilution, cation-adjusted Mueller-Hinton Broth)
# S. aureus A798 = type: cell-based, Staphylococcus aureus; conditions: Staphylococcus aureus, A798; multiply-resistant strain (methicillin- and quinolone-resistant)
# In short: (§1)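 Broth microdilution in cation-adjusted Mueller-Hinton Broth per CLSI M7-A7; MICs in mg/L. S. aureus A798 is methicillin- and quinolone-resistant, K. pneumoniae T6474 penicillin-, cephalosporin- and quinolone-resistant; E. coli ATCC25922 and P. aeruginosa ATCC 27853 are quinolone-sensitive.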
# E. coli ATCC25922 = type: cell-based; conditions: Escherichia coli, ATCC25922; quinolone-sensitive strain
# In short: as §1
# P. aeruginosa ATCC 27853 = type: cell-based, Pseudomonas aeruginosa; conditions: Pseudomonas aeruginosa, ATCC27853; quinolone-sensitive strain
# In short: as §1
# K. pneumoniae T6474 = type: cell-based, Klebsiella pneumoniae; conditions: Klebsiella pneumoniae, T6474; multiply-resistant strain (penicillin-, cephalosporin- and quinolone-resistant)
# In short: as §1
MIC (S. aureus A798),MIC (E. coli ATCC25922),MIC (P. aeruginosa ATCC 27853),MIC (K. pneumoniae T6474),SMILES
1 µg/mL,2 µg/mL,4 µg/mL,8 µg/mL,"CN1CCC(Oc2cccc(-c3cccc(CNCC[C@H]4CN(c5ccc6c(n5)NC(=O)CO6)C(=O)O4)c3)n2)CC1 [Example $127, 6-[(S)-5-(2-{3-[6-(1-methyl-piperidin-4-yloxy)-pyridin-2-yl]-benzylamino}-ethyl)-2-oxo-oxazolidin-3-yl]-4H-pyrido[3,2-b][1,4]oxazin-3-one]"
0.25 µg/mL,0.5 µg/mL,1 µg/mL,1 µg/mL,"CN1CC[C@H](Oc2cccc(-c3ccnc(CNCC[C@H]4CN(c5ccc6c(n5)NC(=O)CO6)C(=O)O4)c3)n2)C1 [Example $128, 6-[(S)-5-(2-{[6-((S)-1-methyl-pyrrolidin-3-yloxy)-[2,4′]bipyridinyl-2′-ylmethyl]-amino}-ethyl)-2-oxo-oxazolidin-3-yl]-4H-pyrido[3,2-b][1,4]oxazin-3-one]"
2 µg/mL,4 µg/mL,8 µg/mL,4 µg/mL,"CN1CC[C@H](Oc2cccc(-c3cccc(CNCC[C@H]4CN(c5ccc6c(n5)NC(=O)CO6)C(=O)O4)n3)n2)C1 [Example $129, 6-[(S)-5-(2-{[6′-((S)-1-methyl-pyrrolidin-3-yloxy)-[2,2′]bipyridinyl-6-ylmethyl]-amino}-ethyl)-2-oxo-oxazolidin-3-yl]-4H-pyrido[3,2-b][1,4]oxazin-3-one]"
0.25 µg/mL,1 µg/mL,4 µg/mL,2 µg/mL,"CN1CCC[C@H]1COc1cccc(-c2cccc(CNCC[C@H]3CN(c4ccc5c(n4)NC(=O)CO5)C(=O)O3)c2)n1 [Example $130, 6-[(S)-5-(2-{3-[6-((S)-1-methyl-pyrrolidin-2-ylmethoxy)-pyridin-2-yl]-benzylamino}-ethyl)-2-oxo-oxazolidin-3-yl]-4H-pyrido[3,2-b][1,4]oxazin-3-one]"
0.25 µg/mL,0.5 µg/mL,0.5 µg/mL,1 µg/mL,"C[C@H]1C[C@H](Oc2cccc(-c3cccc(CNCC[C@H]4CN(c5ccc6c(n5)NC(=O)CO6)C(=O)O4)c3)n2)CN1 [Example $131, 6-[(S)-5-(2-{3-[6-((3S,5S)-5-methyl-pyrrolidin-3-yloxy)-pyridin-2-yl]-benzylamino}-ethyl)-2-oxo-oxazolidin-3-yl]-4H-pyrido[3,2-b][1,4]oxazin-3-one]"
0.25 µg/mL,0.5 µg/mL,0.5 µg/mL,1 µg/mL,"O=C1COc2ccc(N3C[C@H](CCNCc4cccc(-c5cccc(OC[C@H]6CCCN6)n5)c4)OC3=O)nc2N1 [Example $132, 6-[(S)-2-oxo-5-(2-{3-[6-((R)-1-pyrrolidin-2-ylmethoxy)-pyridin-2-yl]-benzylamino}-ethyl)-oxazolidin-3-yl]-4H-pyrido[3,2-b][1,4]oxazin-3-one]"
1 µg/mL,1 µg/mL,0.5 µg/mL,2 µg/mL,"O=C1COc2ccc(N3C[C@H](CCNCc4cccc(-c5cccc(OC[C@@H]6CCCN6)n5)c4)OC3=O)nc2N1 [Example $133, 6-[(S)-2-oxo-5-(2-{3-[6-((S)-1-pyrrolidin-2-ylmethoxy)-pyridin-2-yl]-benzylamino}-ethyl)-oxazolidin-3-yl]-4H-pyrido[3,2-b][1,4]oxazin-3-one]"
0.25 µg/mL,1 µg/mL,2 µg/mL,2 µg/mL,"COc1cc(O[C@H]2CCN(C)C2)nc(-c2cccc(CNCC[C@H]3CN(c4ccc5c(n4)NC(=O)CO5)C(=O)O3)c2)c1 [Example $136, 6-[(S)-5-(2-{3-[4-methoxy-6-((S)-1-methyl-pyrrolidin-3-yloxy)-pyridin-2-yl]-benzylamino}-ethyl)-2-oxo-oxazolidin-3-yl]-4H-pyrido[3,2-b][1,4]oxazin-3-one]"
0.5 µg/mL,1 µg/mL,1 µg/mL,1 µg/mL,"CN1CC[C@H](Oc2ccnc(-c3cccc(CNCC[C@H]4CN(c5ccc6c(n5)NC(=O)CO6)C(=O)O4)c3)n2)C1 [Example $137, 6-[(S)-5-(2-{3-[4-((S)-1-methyl-pyrrolidin-3-yloxy)-pyrimidin-2-yl]-benzylamino}-ethyl)-2-oxo-oxazolidin-3-yl]-4H-pyrido[3,2-b][1,4]oxazin-3-one]"
2 µg/mL,1 µg/mL,2 µg/mL,2 µg/mL,"CN1CC[C@H](Oc2cccc(-c3cncc(CNCC[C@H]4CN(c5ccc6c(n5)NC(=O)CO6)C(=O)O4)c3)n2)C1 [Example $138, 6-[(S)-5-(2-{[6-((S)-1-methyl-pyrrolidin-3-yloxy)-[2,3′]bipyridinyl-5′-ylmethyl]-amino}-ethyl)-2-oxo-oxazolidin-3-yl]-4H-pyrido[3,2-b][1,4]oxazin-3-one]"
0.25 µg/mL,1 µg/mL,2 µg/mL,1 µg/mL,"CN1CC[C@H](Oc2cccc(-c3cc(CNCC[C@H]4CN(c5ccc6c(n5)NC(=O)CO6)C(=O)O4)ccn3)n2)C1 [Example $139, 6-[(S)-5-(2-{[6′-((S)-1-methyl-pyrrolidin-3-yloxy)-[2,2′]bipyridinyl-4-ylmethyl]-amino}-ethyl)-2-oxo-oxazolidin-3-yl]-4H-pyrido[3,2-b][1,4]oxazin-3-one]"
0.5 µg/mL,2 µg/mL,2 µg/mL,2 µg/mL,"CN1CC[C@@H](COc2cccc(-c3cccc(CNCC[C@H]4CN(c5ccc6c(n5)NC(=O)CO6)C(=O)O4)c3)n2)C1 [Example $140, 6-[(S)-5-(2-{3-[6-((R)-1-methyl-pyrrolidin-3-ylmethoxy)-pyridin-2-yl]-benzylamino}-ethyl)-2-oxo-oxazolidin-3-yl]-4H-pyrido[3,2-b][1,4]oxazin-3-one]"
0.5 µg/mL,2 µg/mL,2 µg/mL,2 µg/mL,"CN1CC[C@H](COc2cccc(-c3cccc(CNCC[C@H]4CN(c5ccc6c(n5)NC(=O)CO6)C(=O)O4)c3)n2)C1 [Example $141, 6-[(S)-5-(2-{3-[6-((S)-1-methyl-pyrrolidin-3-ylmethoxy)-pyridin-2-yl]-benzylamino}-ethyl)-2-oxo-oxazolidin-3-yl]-4H-pyrido[3,2-b][1,4]oxazin-3-one]"
2 µg/mL,2 µg/mL,1 µg/mL,4 µg/mL,"O=C1COc2ccc(N3C[C@H](CCNCc4cccc(-c5cccc(OC[C@@H]6CCNC6)n5)c4)OC3=O)nc2N1 [Example $143, 6-[(S)-2-oxo-5-(2-{3-[6-((R)-1-pyrrolidin-3-ylmethoxy)-pyridin-2-yl]-benzylamino}-ethyl)-oxazolidin-3-yl]-4H-pyrido[3,2-b][1,4]oxazin-3-one]"
2 µg/mL,4 µg/mL,1 µg/mL,4 µg/mL,"O=C1COc2ccc(N3C[C@H](CCNCc4cccc(-c5cccc(OC[C@H]6CCNC6)n5)c4)OC3=O)nc2N1 [Example $144, 6-[(S)-2-oxo-5-(2-{3-[6-((S)-1-pyrrolidin-3-ylmethoxy)-pyridin-2-yl]-benzylamino}-ethyl)-oxazolidin-3-yl]-4H-pyrido[3,2-b][1,4]oxazin-3-one]"
2 µg/mL,4 µg/mL,8 µg/mL,2 µg/mL,"CN1CC[C@H](Oc2cncc(-c3cccc(CNCC[C@H]4CN(c5ccc6c(n5)NC(=O)CO6)C(=O)O4)n3)n2)C1 [Example $145, 6-{(S)-5-[2-({6-[6-((S)-1-methyl-pyrrolidin-3-yloxy)-pyrazin-2-yl]-pyridin-2-ylmethyl}-amino)-ethyl]-2-oxo-oxazolidin-3-yl}-4H-pyrido[3,2-b][1,4]oxazin-3-one]"
